Target: B-Raf (V600E)-kinase (Homo sapiens (Human), UniProt P15056, V600E)
Assay: Kinase test B-RAF (V600E)
Assay type: biochemical
Conditions: B-RAF (V600E) kinase test, 250 μM ATP
Experimental: Kinase Test B-RAF (V600E)
In a dilution series 10 μL of test substance solution are placed in a multiwell plate. The dilution series is selected so that generally a range of concentrations of 2 μM to 0.119 nM or 0.017 nM is covered. If necessary the initial concentration of 2 μM is changed to 50 μM, 10 μM or 0.4 μM or 0.2857 μM and further dilution is carried out accordingly. The final concentration of DMSO is 5%. 10 μL of the B-Raf (V600E)-kinase solution are pipetted in (containing 0.5 ng B-Raf (V600E)-kinase in 20 mM Tris-HCl pH 7.5, 0.1 mM EDTA, 0.1 mM EGTA, 0.286 mM sodium orthovanadate, 10% glycerol, 1 mg/mL bovine serum albumin, 1 mM dithiothreitol) and the mixture is incubated for 24 h at RT under with shaking. The kinase reaction is started by the addition of 20 μL ATP solution [final concentration: 250 μM ATP, 30 mM Tris-HCl pH 7.5, 0.02% Brij, 0.2 mM sodium orthovanadate, 10 mM magnesium acetate, 0.1 mM EGTA, phosphatase cocktail (Sigma, # P2850, dilution recommended by the manufacturer), 0.1 mM EGTA] and 10 μL MEK1 solution [containing 50 ng biotinylated MEK1 (prepared from purified MEK1 according to standard procedure, e.g. with EZ-Link Sulpho-NHS-LC-Biotin reagent, Pierce, #21335) and carried out for 60 min at RT with constant shaking. The reaction is stopped by the addition of 12 μL of a 100 mM EDTA solution and incubation is continued for a further 5 min. 55 μL of the reaction solution are transferred into a streptavidin-coated plate (e.g. Streptawell HighBond, Roche, #11989685001) and shaken gently for 1 h at RT, in order to bind biotinylated MEK1 to the plate. After elimination of the liquid the plate is washed five times with 200 μL of 1×PBS and 100 μL solution of primary antibody plus europium-labelled secondary antibody [Anti Phospho-MEK (Ser217/221), Cell Signaling, #9121 and Eu-N1 labeled goat-anti-rabbit antibody, Perkin Elmer, # AD0105], the primary antibody is diluted 1:2000 and the secondary antibody is diluted to 0.4-0.5 μg/mL in Delfia Assay Buffer (Perkin Elmer, #1244-111). After 1 h shaking at RT the solution is poured away and washed five times with 200 μL Delfia Wash Buffer (Perkin Elmer, #4010-0010/#1244-114). After the addition of 200 μL Enhancement Solution (Perkin Elmer, #4001-0010/#1244-105) the mixture is shaken for 10 min at RT and then measured in a Wallac Victor using the program “Delfia Time Resolved Fluorescence (Europium)”. IC50 values are obtained from these dosage-activity curves using a software program (GraphPadPrizm).

Chain of B-Raf (V600E)-kinase (P15056 whole entry V600E): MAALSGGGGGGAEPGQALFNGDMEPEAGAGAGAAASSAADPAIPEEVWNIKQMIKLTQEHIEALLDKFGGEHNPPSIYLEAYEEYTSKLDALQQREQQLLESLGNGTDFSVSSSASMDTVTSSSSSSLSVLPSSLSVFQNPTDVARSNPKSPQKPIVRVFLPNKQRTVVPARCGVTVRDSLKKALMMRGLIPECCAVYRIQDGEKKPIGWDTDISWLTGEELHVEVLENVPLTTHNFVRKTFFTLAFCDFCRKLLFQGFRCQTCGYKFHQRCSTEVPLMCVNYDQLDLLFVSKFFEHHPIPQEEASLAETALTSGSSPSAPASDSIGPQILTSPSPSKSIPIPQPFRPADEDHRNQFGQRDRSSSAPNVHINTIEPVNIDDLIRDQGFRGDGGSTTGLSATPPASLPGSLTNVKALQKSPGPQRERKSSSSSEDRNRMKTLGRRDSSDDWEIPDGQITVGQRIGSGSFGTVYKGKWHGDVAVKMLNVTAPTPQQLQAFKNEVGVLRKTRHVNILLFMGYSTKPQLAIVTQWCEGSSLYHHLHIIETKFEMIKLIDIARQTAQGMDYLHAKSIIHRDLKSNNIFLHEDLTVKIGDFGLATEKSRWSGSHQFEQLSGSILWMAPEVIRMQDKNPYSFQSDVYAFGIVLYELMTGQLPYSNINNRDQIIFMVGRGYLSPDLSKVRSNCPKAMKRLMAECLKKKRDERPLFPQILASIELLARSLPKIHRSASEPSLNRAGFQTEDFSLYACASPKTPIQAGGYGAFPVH

Going from `Cc1ccc(C(=O)Nc2ccccc2)cc1Nc1ncnc2cnc(N3CCCC3)nc12` [III-259] to `Cc1ccc(C(=O)Nc2ccc(Cl)c(C(F)(F)F)c2)cc1Nc1ncnc2cnc(N3CCCCC3)nc12` [III-331], the IC50 falls from 505 nM to 10 nM (50-fold).

First: Cc1ccc(C(=O)Nc2cc(C(C)(C)C)on2)cc1Nc1ncnc2cnc(NCC3CCOC3)nc12 (centres unmarked) [III-359]
Second: COCCNc1ncc2ncnc(Nc3cc(C(=O)Nc4cc(C(C)(C)C)on4)ccc3C)c2n1 [III-358]
The IC50 of the first is 2-fold higher: 2 nM for the first, 1 nM for the second.

Going from `COc1ccc(NC(=O)c2ccc(Cl)c(Nc3ncnc4cnc(N(C)CCN5CCCC5)nc34)c2)cc1C(F)(F)F` [III-8] to `COc1ccc(NC(=O)c2ccc(Cl)c(Nc3ncnc4cnc(N5CCCC5)nc34)c2)cc1C(F)(F)F` [III-13], the IC50 rises from 3 nM to 9 nM (3-fold). The first is the more potent here.

First: Cc1ccc(C(=O)Nc2cc(C(C)(C)C)n[nH]2)cc1Nc1ncnc2c(N)nc(N3CCN(C4CCN(C)CC4)CC3)nc12 [I-12]
Second: Cc1ccc(C(=O)Nc2cc(C(C)(C)C)n[nH]2)cc1Nc1ncnc2c(N)nc(N3CCCN(C)CC3)nc12 [I-14]
The IC50 of the first is 1.5-fold lower: 2 nM for the first, 3 nM for the second.

First: Cc1ccc(C(=O)Nc2cccc(C(F)(F)F)c2)cc1Nc1ncnc2c(N)nc(N3CCCN(c4ncccn4)CC3)nc12 [I-63]
Second: Cc1ccc(C(=O)Nc2cc(C(F)(F)F)ccn2)cc1Nc1ncnc2c(N)nc(N3CCN(C)CC3)nc12 [I-73]
The IC50 of the first is 2-fold lower: 1 nM for the first, 2 nM for the second.

Going from `Cc1cn(-c2ncc3ncnc(Nc4cc(C(=O)Nc5cc(C(C)(C)C)on5)ccc4C)c3n2)cn1` [III-367] to `Cc1ccc(C(=O)Nc2cc(C(C)(C)C)on2)cc1Nc1ncnc2cnc(N3CC(F)(F)C3)nc12` [III-366], the IC50 rises from 2 nM to 6 nM (3-fold). The first is the more potent here.

Going from `Cc1ccc(C(=O)Nc2cc(C(F)(F)F)ccn2)cc1Nc1ncnc2cnc(N3CCN(CC(C)C)CC3)nc12` [III-449] to `COCCN1CCN(c2ncc3ncnc(Nc4cc(C(=O)Nc5cc(C(F)(F)F)ccn5)ccc4C)c3n2)CC1` [III-426], the IC50 falls from 3 nM to < 1 nM. The second is the more potent here.

`COCCN1CCN(c2ncc3ncnc(Nc4cc(C(=O)Nc5ccc(F)c(C(F)(F)F)c5)ccc4C)c3n2)CC1` [III-536] and `Cc1ccc(C(=O)Nc2ccc(F)c(C(F)(F)F)c2)cc1Nc1ncnc2cnc(N3CCN(C)CC3)nc12` [III-297] are the same in IC50: 1 nM for the first, 1 nM for the second.

First: Cc1ccc(C(=O)Nc2nnc(C(F)(F)F)s2)cc1Nc1ncnc2cnc(N3CCNCC3)nc12 [III-342]
Second: Cc1ccc(C(=O)Nc2nnc(C(F)(F)F)s2)cc1Nc1ncnc2cnc(N(C)CCN(C)C)nc12 [III-280]
The IC50 of the first is 4.7-fold lower: 2120 nM for the first, 10000 nM for the second.

Compared with `Cc1cc(C(=O)Nc2cc(C(C)(C)C)nn2C)cc(Nc2ncnc3cnc(N4CCOCC4)nc23)c1C` [III-372], `CN1CCN(c2ncc3ncnc(Nc4cc(Cl)cc(C(=O)Nc5cc(C(C)(C)C)nn5C)c4)c3n2)CC1` [III-378] is 1.6-fold higher in IC50: 5 nM for the first, 8 nM for the second.

`Cc1ccc(C(=O)NCc2ccc(C(F)(F)F)cc2)cc1Nc1ncnc2cnc(N3CCCC3)nc12` [III-250] and `Cc1ccc(C(=O)NCc2ccc(C(F)(F)F)cc2)cc1Nc1ncnc2cnc(N3CCCCC3)nc12` [III-246] are within 1.5-fold of each other in IC50: 40 nM for the first, 29 nM for the second.

`CNc1ncc2ncnc(Nc3cc(C(=O)Nc4cc(CN5CCCC5)cc(C(F)(F)F)c4)ccc3C)c2n1` [III-116] and `CNc1ncc2ncnc(Nc3cc(C(=O)Nc4cc(OCCN(C)C)cc(C(F)(F)F)c4)ccc3C)c2n1` [III-156] cannot be ordered by IC50: < 1 nM for the first, < 1 nM for the second.

`Cc1ccc(C(=O)Nc2cc(C(C)(C)C)nn2C)cc1Nc1ncnc2cnc(NC3CCOC3)nc12` (centres unmarked) [III-348] and `COc1ccc(NC(=O)c2ccc(C)c(Nc3ncnc4cnc(NC5CCOC5)nc34)c2)cc1C(F)(F)F` (centres unmarked) [III-356] cannot be ordered by IC50: < 1 nM for the first, < 1 nM for the second.

Going from `Cc1ccc(C(=O)Nc2cc(C(C)(C)C)n[nH]2)cc1Nc1ncnc2cnc(N3CCCN(C)CC3)nc12` [III-446] to `Cc1ccc(C(=O)NCc2cccc(C(C)(C)C)c2)cc1Nc1ncnc2cnc(N3CCCN(C)CC3)nc12` [III-336], the IC50 rises from 6 nM to 140 nM (23-fold). The first is the more potent here.

`COc1ccc(NC(=O)c2ccc(F)c(Nc3ncnc4cnc(N5CCN(CC6CC6)CC5)nc34)c2)cc1C(F)(F)F` [III-404] and `COc1ccc(NC(=O)c2ccc(C)c(Nc3ncnc4cnc(N5CCN(CC6CCOC6)CC5)nc34)c2)cc1C(F)(F)F` (centres unmarked) [III-432] are the same in IC50: 6 nM for the first, 6 nM for the second.

Compared with `COc1ccc(NC(=O)c2ccc(C)c(Nc3ncnc4cnc(N5CCN(CCN6CCOCC6)CC5)nc34)c2)cc1C(F)(F)F` [III-552], `COc1ccc(NC(=O)c2ccc(C)c(Nc3ncnc4cnc(N5CCCOCC5)nc34)c2)cc1C(F)(F)F` [III-551] is 17-fold lower in IC50: 17 nM for the first, 1 nM for the second.

Going from `Cc1ccc(NC(=O)c2cccc(C(F)(F)F)c2)cc1Nc1ncnc2c(N)nc(NCc3ccncc3)nc12` [II-4] to `COc1ccc(C(=O)Nc2cccc(C(F)(F)F)c2)cc1Nc1ncnc2c(N)nc(N3CCN(CC4CCN(C)CC4)CC3)nc12` [I-33], the IC50 falls from 81 nM to 12 nM (6.8-fold). The second is the more potent here.

First: Cc1ccc(C(=O)NC2CCCCC2)cc1Nc1ncnc2cnc(N3CCCN(C)CC3)nc12 [III-183]
Second: Cc1ccc(C(=O)NC2CCCCC2)cc1Nc1ncnc2cnc(N3CCCC3)nc12 [III-258]
The IC50 of the first is higher: > 15000 nM for the first, 15000 nM for the second.

Going from `COc1ccc(NC(=O)c2ccc(F)c(Nc3ncnc4cnc(NCCCN5CCOCC5)nc34)c2)cc1C(F)(F)F` [III-36] to `CC(C)(C)c1cc(NC(=O)c2ccc(C(F)(F)F)c(Nc3ncnc4cnc(NCCCN5CCOCC5)nc34)c2)no1` [III-62], the IC50 rises from 3 nM to 546 nM (180-fold).

First: Cc1ccc(C(=O)Nc2cc(N3C[C@@H](C)N[C@@H](C)C3)cc(C(F)(F)F)c2)cc1Nc1ncnc2cnc(N3CCOCC3)nc12 [III-524]
Second: Cc1ccc(C(=O)Nc2cc(N(C)CCN(C)C)cc(C(F)(F)F)c2)cc1Nc1ncnc2cnc(N3CC[C@H](F)C3)nc12 [III-438]
The IC50 of the first is 2-fold lower: 3 nM for the first, 6 nM for the second. The first is the more potent here.

First: Cc1ccc(C(=O)Nc2ccc(C#N)c(C(F)(F)F)c2)cc1Nc1ncnc2cnc(N3CC[C@H](F)C3)nc12 [III-292]
Second: COc1c(CN2CCCC2)cc(C(F)(F)F)cc1NC(=O)c1ccc(C)c(Nc2ncnc3cnc(N4CC[C@H](F)C4)nc23)c1 [III-541]
The IC50 of the first is 2.4-fold higher: 36 nM for the first, 15 nM for the second. The second is the more potent here.

Going from `Cc1ccc(C(=O)Nc2cc(OCCN(C)C)cc(C(F)(F)F)c2)cc1Nc1ncnc2cnc(N3CCSCC3)nc12` [III-142] to `Cc1ccc(C(=O)Nc2ccc(F)c(C(F)(F)F)c2)cc1Nc1ncnc2cnc(N(C)CCN(C)C)nc12` [III-231], the IC50 rises from 3 nM to 29 nM (9.7-fold).

Compared with `COCCN1CCN(c2ncc3ncnc(Nc4cc(C(=O)Nc5cc(C(F)(F)F)ccc5-n5ccnn5)ccc4C)c3n2)CC1` [III-537], `Cc1ccc(C(=O)NCc2ccc(C(F)(F)F)cc2)cc1Nc1ncnc2cnc(N3CCN(C)CC3)nc12` [III-227] is 3.4-fold higher in IC50: 12 nM for the first, 41 nM for the second.

`Cc1ccc(NC(=O)c2cc(C(C)(C)C)nn2C)cc1Nc1ncnc2cnc(N3CCN(C)CC3)nc12` [IV-10] and `Cc1ccc(C(=O)NCc2ccc(C(C)(C)C)cc2)cc1Nc1ncnc2cnc(N3CCCN(C)CC3)nc12` [III-218] are within 1.5-fold of each other in IC50: 221 nM for the first, 293 nM for the second.

Compared with `CN(C)CCNc1ncc2ncnc(Nc3cc(C(=O)Nc4cc(C(C)(C)C)on4)ccc3Cl)c2n1` [III-77], `Cc1ccc(C(=O)Nc2cc(C(C)(C)C)on2)cc1Nc1ncnc2cnc(N3CCC[C@H]3CO)nc12` [III-363] is lower in IC50: 2 nM for the first, < 1 nM for the second. The second is the more potent here.

Compared with `CC(C)(C)c1cc(NC(=O)c2ccc(F)c(Nc3ncnc4cnc(N5CCN(CC6CC6)CC5)nc34)c2)no1` [III-397], `Cc1ccc(C(=O)Nc2cc(C(C)(C)C)on2)cc1Nc1ncnc2cnc(N3CCC(N4CCCC4)CC3)nc12` [III-490] is 2-fold lower in IC50: 4 nM for the first, 2 nM for the second. The second is the more potent here.

Compared with `Cc1ccc(C(=O)Nc2cc(C(C)(C)C)n[nH]2)cc1Nc1ncnc2c(N)nc(N3CCN(CC4CCCN(C)C4)CC3)nc12` (centres unmarked) [I-40], `Cc1ccc(C(=O)Nc2cc(C(C)(C)C)nn2C)cc1Nc1ncnc2c(N)nc(N3CCN4CCCC4C3)nc12` (centres unmarked) [I-85] is 2.3-fold higher in IC50: 3 nM for the first, 7 nM for the second. The first is the more potent here.

First: Cc1ccc(C(=O)NC2CC2)cc1Nc1ncnc2cnc(N3CCCCC3)nc12 [III-254]
Second: Cc1ccc(C(=O)NCc2ccc(C(C)(C)C)cc2)cc1Nc1ncnc2cnc(N3CCCC3)nc12 [III-267]
The IC50 of the first is 2.4-fold higher: 2000 nM for the first, 836 nM for the second.

First: COCCN1CCN(c2ncc3ncnc(Nc4cc(C(=O)Nc5cc(C(C)(C)C)cc(NS(C)(=O)=O)c5OC)ccc4C)c3n2)CC1 [III-505]
Second: Cc1ccc(C(=O)Nc2cc(C(C)(C)C)on2)cc1Nc1ncnc2cnc(N3CCCOCC3)nc12 [III-369]
The IC50 of the first is 24-fold higher: 49 nM for the first, 2 nM for the second.

In the case of `Cc1ccc(C(=O)Nc2cc(N3CCN(C)CC3)c(F)c(C(F)(F)F)c2)cc1Nc1ncnc2cnc(NC3CCOC3)nc12` (centres unmarked) [III-506], the IC50 is reported as 4 nM.

— patent US8653087B2, “Pyrido [5, 4-D] pyrimidines as cell proliferation inhibitors” (Boehringer Ingelheim International GmbH, priority 2008, dated 2014)
